The supplement of paper PMC10307832

How the values were obtained:
Assay in all cases: relative viability (nuclei count vs DMSO), 5 days (fraction); higher = more cells survive
LXF-289 = tested on: LXF-289
Outline: (§1)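 Relative viability is defined as nuclei in treated wells over nuclei in vehicle wells. Duplicate plates were run and medians reported. Lung cancer cell lines in 1536-well plates were dosed by pin tool one day after seeding, with one drug or with a fixed anchor-drug dose plus five library-drug doses (not always all listed) in √10 steps, and nuclei were counted after 5 days.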

LU99A = tested on: LU99A
Outline: as §1

UMC-11 = tested on: UMC-11
Outline: as §1

NCI-H1666 = tested on: NCI-H1666
Outline: as §1

NCI-H2009 = tested on: NCI-H2009
Outline: as §1

HOP-62 = tested on: HOP-62
Outline: as §1

LC-2-ad = tested on: LC-2-ad
Outline: as §1

HCC-78 = tested on: HCC-78
Outline: as §1

NCI-H1793 = tested on: NCI-H1793
Outline: as §1

HCC-366 = tested on: HCC-366
Outline: as §1

NCI-H2085 = tested on: NCI-H2085
Outline: as §1

NCI-H358 = tested on: NCI-H358
Outline: as §1

SK-LU-1 = tested on: SK-LU-1
Outline: as §1

NCI-H460 = tested on: NCI-H460
Outline: as §1

NCI-H1792 = tested on: NCI-H1792
Outline: as §1

A-427 = tested on: A-427
Outline: as §1

NCI-H1915 = tested on: NCI-H1915
Outline: as §1

COR-L 105 = tested on: COR-L 105
Outline: as §1

NCI-H2170 = tested on: NCI-H2170
Outline: as §1

NCI-H1944 = tested on: NCI-H1944
Outline: as §1

EPLC-272H = tested on: EPLC-272H
Outline: as §1

## CC(=O)O[C@@]12CO[C@@H]1C[C@H](O)[C@@]1(C)C(=O)[C@H](O)C3=C(C)[C@@H](OC(=O)[C@H](O)[C@@H](NC(=O)OC(C)(C)C)c4ccccc4)C[C@@](O)([C@@H](OC(=O)c4ccccc4)[C@H]21)C3(C)C [Docetaxel] + CS(=O)(=O)N1CCN(Cc2cc3nc(-c4cccc5[nH]ncc45)nc(N4CCOCC4)c3s2)CC1 [Pictilisib] (partner 1 µM)
LXF-289; first compound 0.0002 µM
  relative viability: 0.815
LXF-289; first compound 0.000632 µM
  relative viability: 0.653
LXF-289; first compound 0.002 µM
  relative viability: 0.212
LXF-289; first compound 0.006325 µM
  relative viability: 0.114
LXF-289; first compound 0.02 µM
  relative viability: 0.0576
LU99A; first compound 0.0002 µM
  relative viability: 0.337
LU99A; first compound 0.000632 µM
  relative viability: 0.249
LU99A; first compound 0.002 µM
  relative viability: 0.267
LU99A; first compound 0.006325 µM
  relative viability: 0.191
LU99A; first compound 0.02 µM
  relative viability: 0.148
UMC-11; first compound 0.0002 µM
  relative viability: 0.799
UMC-11; first compound 0.000632 µM
  relative viability: 0.835
UMC-11; first compound 0.002 µM
  relative viability: 0.245
UMC-11; first compound 0.006325 µM
  relative viability: 0.226
UMC-11; first compound 0.02 µM
  relative viability: 0.136
NCI-H1666; first compound 0.0002 µM
  relative viability: 0.4
NCI-H1666; first compound 0.000632 µM
  relative viability: 0.431
NCI-H1666; first compound 0.002 µM
  relative viability: 0.273
NCI-H1666; first compound 0.006325 µM
  relative viability: 0.198
NCI-H1666; first compound 0.02 µM
  relative viability: 0.169
NCI-H2009; first compound 0.0002 µM
  relative viability: 0.696
NCI-H2009; first compound 0.000632 µM
  relative viability: 0.747
NCI-H2009; first compound 0.002 µM
  relative viability: 0.447
NCI-H2009; first compound 0.006325 µM
  relative viability: 0.203
NCI-H2009; first compound 0.02 µM
  relative viability: 0.129
HOP-62; first compound 0.0002 µM
  relative viability: 0.75
HOP-62; first compound 0.000632 µM
  relative viability: 0.395
HOP-62; first compound 0.02 µM
  relative viability: 0.101
LC-2-ad; first compound 0.0002 µM
  relative viability: 0.29
LC-2-ad; first compound 0.002 µM
  relative viability: 0.106
LC-2-ad; first compound 0.006325 µM
  relative viability: 0.113
LC-2-ad; first compound 0.02 µM
  relative viability: 0.0847
HCC-78; first compound 0.0002 µM
  relative viability: 0.204
HCC-78; first compound 0.000632 µM
  relative viability: 0.185
HCC-78; first compound 0.002 µM
  relative viability: 0.172
HCC-78; first compound 0.006325 µM
  relative viability: 0.166
HCC-78; first compound 0.02 µM
  relative viability: 0.204
NCI-H1793; first compound 0.0002 µM
  relative viability: 0.323
NCI-H1793; first compound 0.000632 µM
  relative viability: 0.369
NCI-H1793; first compound 0.002 µM
  relative viability: 0.279
NCI-H1793; first compound 0.006325 µM
  relative viability: 0.289
NCI-H1793; first compound 0.02 µM
  relative viability: 0.204
HCC-366; first compound 0.0002 µM
  relative viability: 0.0877
HCC-366; first compound 0.002 µM
  relative viability: 0.0735
HCC-366; first compound 0.006325 µM
  relative viability: 0.0362
HCC-366; first compound 0.02 µM
  relative viability: 0.0228
NCI-H2085; first compound 0.0002 µM
  relative viability: 0.532
NCI-H2085; first compound 0.000632 µM
  relative viability: 0.467
NCI-H2085; first compound 0.002 µM
  relative viability: 0.41
NCI-H2085; first compound 0.006325 µM
  relative viability: 0.374
NCI-H2085; first compound 0.02 µM
  relative viability: 0.237
NCI-H358; first compound 0.0002 µM
  relative viability: 0.321
NCI-H358; first compound 0.000632 µM
  relative viability: 0.34
NCI-H358; first compound 0.002 µM
  relative viability: 0.283
NCI-H358; first compound 0.02 µM
  relative viability: 0.157
SK-LU-1; first compound 0.0002 µM
  relative viability: 0.608
SK-LU-1; first compound 0.000632 µM
  relative viability: 0.305
SK-LU-1; first compound 0.002 µM
  relative viability: 0.253
SK-LU-1; first compound 0.006325 µM
  relative viability: 0.181
SK-LU-1; first compound 0.02 µM
  relative viability: 0.171
NCI-H460; first compound 0.0002 µM
  relative viability: 0.351
NCI-H460; first compound 0.000632 µM
  relative viability: 0.3
NCI-H460; first compound 0.002 µM
  relative viability: 0.144
NCI-H460; first compound 0.006325 µM
  relative viability: 0.0682
NCI-H460; first compound 0.02 µM
  relative viability: 0.0373
NCI-H1792; first compound 0.0002 µM
  relative viability: 0.274
NCI-H1792; first compound 0.000632 µM
  relative viability: 0.273
NCI-H1792; first compound 0.002 µM
  relative viability: 0.178
NCI-H1792; first compound 0.02 µM
  relative viability: 0.073
A-427; first compound 0.0002 µM
  relative viability: 0.766
A-427; first compound 0.000632 µM
  relative viability: 0.885
A-427; first compound 0.002 µM
  relative viability: 0.488
A-427; first compound 0.006325 µM
  relative viability: 0.23
A-427; first compound 0.02 µM
  relative viability: 0.158
NCI-H1915; first compound 0.0002 µM
  relative viability: 0.857
NCI-H1915; first compound 0.000632 µM
  relative viability: 0.931
NCI-H1915; first compound 0.002 µM
  relative viability: 0.275
NCI-H1915; first compound 0.006325 µM
  relative viability: 0.257
NCI-H1915; first compound 0.02 µM
  relative viability: 0.11
COR-L 105; first compound 0.0002 µM
  relative viability: 0.392
COR-L 105; first compound 0.000632 µM
  relative viability: 0.37
COR-L 105; first compound 0.002 µM
  relative viability: 0.278
COR-L 105; first compound 0.006325 µM
  relative viability: 0.228
COR-L 105; first compound 0.02 µM
  relative viability: 0.294
NCI-H2170; first compound 0.0002 µM
  relative viability: 0.342
NCI-H2170; first compound 0.000632 µM
  relative viability: 0.288
NCI-H2170; first compound 0.002 µM
  relative viability: 0.183
NCI-H2170; first compound 0.006325 µM
  relative viability: 0.186
NCI-H1944; first compound 0.0002 µM
  relative viability: 0.338
NCI-H1944; first compound 0.000632 µM
  relative viability: 0.368
NCI-H1944; first compound 0.002 µM
  relative viability: 0.318
NCI-H1944; first compound 0.006325 µM
  relative viability: 0.322
NCI-H1944; first compound 0.02 µM
  relative viability: 0.178
EPLC-272H; first compound 0.0002 µM
  relative viability: 0.27
EPLC-272H; first compound 0.000632 µM
  relative viability: 0.198
EPLC-272H; first compound 0.002 µM
  relative viability: 0.161
EPLC-272H; first compound 0.006325 µM
  relative viability: 0.111
EPLC-272H; first compound 0.02 µM
  relative viability: 0.126
